Data set [1] can be described thus: physchem. The data set is classed as physicochemical. Conditions: aqueous buffer, kinetic from dmso stock; nephelometry, PBS pH 7.0-7.3, 1% DMSO, 25° C., 90 min. The method in brief:
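DMSO stocks of 10-50 mM were serially diluted and then diluted into DPBS (pH 7.0-7.3) to 1% final DMSO. After shaking for 90 min at 25° C, light scattering was read by nephelometry.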

Data set [2] can be described thus: Plasma stability assay (human plasma). It counts as in vitro ADME. Conditions: 37° C., read-out: T½ in human plasma (converted).

SMILES strings stand for the structures.

A word on the solubility: it is the concentration that dissolves in the medium under given conditions. `C=C(C)[C@@H]1CCC(C)=C[C@H]1c1c(O)cc(CCCCC)cc1OC(=O)C1(OP(=O)(O)O)CC1.N.N` [7b, 1-((((1′R,2′R)-6-hydroxy-5′-methyl-4-pentyl-2′-(prop-1-en-2-yl)-1′,2′,3′,4′-tetrahydro-[1,1′-biphenyl]-2-yl)oxy)carbonyl)cyclopropyl phosphate di-ammonium salt]: the solubility in data set [1] was greater than 500 µM. Besides, the half-life in data set [2] is 5.3 h.

The values above are taken from patent US20250108064A1, “PHOSPHATE PRODRUGS OF CANNABINOIDS” (priority 2021, published 2025).
